Results published in US10189794B2, “Heteroaryl compounds and uses thereof” (Celgene CAR LLC, priority 2013, dated 2019).
Like-named read-outs stand apart in the source and are kept apart here.

Experiments:
MDA-MB-453 cells = assay: Cell proliferation, MDA-MB-453 (CellTiter Glo); type: cell-based; conditions: Homo sapiens, read-out: Cell Proliferation GI50 (nM) MDA
Procedure: For both MDA-MB-453 and Huh7 cells the starting density was 5000 cells per well. The cells were allowed to settle down for 4 hr and were then treated with 5, 1.25, 0.31, 0.078, 0.020 or 0.005 μM of test compound for: 96 hr for MDA-MB-453 and 120 hr for Huh7 cells. Cell viability was determined by CellTiter Glo (Promega, Madison, Wis.) and the results were converted to cell numbers using a standard curve. The growth inhibition (GI50) values were determined by Graph Pad Prism.
The results of these experiments show the ability of compounds to inhibit cell growth in FGFR dependant cell lines and are depicted in Table 8, in the columns titled “Cell Proliferation GI50 (nM)”. MDA-MB-453 cell results fall under the heading “MDA” and Huh7 cell results fall under the heading “Huh.”

[1] = target: FGFR4 in MDA-MB-453 cells (Homo sapiens (Human), UniProt P22455, Y367C); assay: Target occupancy assay with biotinylated covalent probe I-127; type: cell-based; conditions: MDA-MB-453 lysate; 2 μM biotinylated probe I-127
Procedure: In order to assess free FGFR4 protein a biotinylated covalent probe was utilized. […] The reaction was incubated for 2 hr at room temperature. The samples and probe mixture were transferred to a FGFR4-coated MSD plate for 2 hr at room temperature. MSD signals were obtained with an anti-streptavidin Sulfo-tag (Meso Scale) antibody for 1 hr at room temperature.
If a compound completely (100%) covalently modies FGFR4 no free FGFR4 should be available for covalent modification by the biotinylated probe and subsequent binding to streptavidin and detection.

FGFR4-WT = FGFR4-WT (Homo sapiens (Human), UniProt P22455); assay: Omnia assay for potency assessment against FGFR4 enzyme; type: biochemical; conditions: read-out: FGFR4 IC50
Procedure: A 10× stock solution of FGFR4-WT (PR4380C), (from Invitrogen, Carlsbad, Calif.) corresponding to method a in Table 7, was prepared as described below. Alternatively, a 10× stock solution of FGFR4-WT (F01-11G), (SignalChem, Richmond, BC) corresponding to method b in Table 7, was prepared as described below. A solution of 1.4×ATP (AS001A) and 5×Tyr-Sox conjugated peptide substrate (KNZ3101) were prepared in IX kinase reaction buffer consisting of 20 mM Tris, pH 7.5, 5 mM MgCl2, 1 mM EGTA, 5 mM β-glycerophosphate, 5% glycerol (10× stock, KB002A) and 0.2 mM DTT (DS001A). […] The serially diluted compounds were prepared on a Tecan EVO100. A second addition of 10 μl of Tyr-Sox FGFR4 substrate was added to each well and the kinase reactions were started with the addition of 35 μL of 1.4×ATP. The reactions were monitored every 71 seconds for 240 minutes at λex360/λem485 in a Synergy plate reader from BioTek (Winooski, Vt.).

Huh7 cells = assay: Cell proliferation, Huh7 (CellTiter Glo); type: cell-based; conditions: Homo sapiens, read-out: Cell Proliferation GI50 (nM) HUH
Procedure: The growth inhibition (GI50) values were determined by Graph Pad Prism.

[2] = method a: Invitrogen FGFR4-WT 10 nM, ATP 300 uM, Y10-Sox 10 uM

FGFR4 in MDA-MB-453 cells, sequence (P22455 22-802 Y367C): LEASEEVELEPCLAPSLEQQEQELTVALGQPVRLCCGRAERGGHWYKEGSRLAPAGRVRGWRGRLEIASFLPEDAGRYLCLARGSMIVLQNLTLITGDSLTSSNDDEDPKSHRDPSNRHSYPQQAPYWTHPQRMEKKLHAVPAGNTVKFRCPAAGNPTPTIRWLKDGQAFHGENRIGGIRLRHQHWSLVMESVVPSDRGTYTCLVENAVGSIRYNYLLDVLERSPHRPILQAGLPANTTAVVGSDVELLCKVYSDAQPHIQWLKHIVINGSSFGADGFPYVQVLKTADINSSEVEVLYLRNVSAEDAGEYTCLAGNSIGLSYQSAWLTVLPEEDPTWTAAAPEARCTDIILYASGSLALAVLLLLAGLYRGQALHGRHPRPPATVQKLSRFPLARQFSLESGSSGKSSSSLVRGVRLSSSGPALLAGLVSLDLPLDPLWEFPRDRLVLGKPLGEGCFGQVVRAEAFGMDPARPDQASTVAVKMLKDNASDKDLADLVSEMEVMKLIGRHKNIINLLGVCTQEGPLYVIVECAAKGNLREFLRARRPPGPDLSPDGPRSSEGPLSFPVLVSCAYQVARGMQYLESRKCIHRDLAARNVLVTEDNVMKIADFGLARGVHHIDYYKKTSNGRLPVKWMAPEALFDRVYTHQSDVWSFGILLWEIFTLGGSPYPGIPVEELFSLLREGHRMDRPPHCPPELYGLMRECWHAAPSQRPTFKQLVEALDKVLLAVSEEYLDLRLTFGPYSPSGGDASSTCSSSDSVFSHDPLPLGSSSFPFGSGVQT
FGFR4-WT, sequence (P22455 22-802): as the sequence (P22455 22-802 Y367C) above, with C346Y counted along it

SMILES | GI50 (MDA-MB-453 cells; MDA-MB-453, 96 hr) | IC50 (FGFR4-WT; [2]) | GI50 (Huh7 cells; Huh-7, Huh7, 120 hr) | further results
C=CC(=O)Nc1cc(N2CCOCC2)ccc1Nc1ncc2c(n1)N(C)C(=O)N(c1cc(OC)cc(OC)c1)C2 [I-17] | 101 to 500 nM |  |  | EC50 [1]: 101 to 500 nM
C=CC(=O)NC1CCCCC1Nc1ncc2c(n1)N(C)C(=O)N(c1cc(OC)cc(OC)c1)C2 (racemic) [I-18] |  |  |  | IC50 (FGFR4-WT; method b: SignalChem FGFR4-WT 2.5 nM, ATP 250 uM, Y10-Sox 10 uM): > 1000 nM
C=CC(=O)NC1CCCCC1Nc1ncc2c(n1)N(C1CCCN(C(=O)OC(C)(C)C)C1)C(=O)N(c1cc(OC)cc(OC)c1)C2 (racemic) [I-45] |  | > 1000 nM |  | 
C=CC(=O)NC1CCCCC1Nc1ncc2c(n1)N(C1CCCNC1)C(=O)N(c1cc(OC)cc(OC)c1)C2 (racemic) [I-46] |  | > 1000 nM |  | 
C=CC(=O)NC1CCCCC1Nc1ncc2c(n1)N(CC1CC1)C(=O)N(c1c(Cl)c(OC)cc(OC)c1Cl)C2 (racemic) [I-129] |  | < 100 nM |  | 
C=CC(=O)N(C)C1CCCCC1Nc1ncc2c(n1)N(C)C(=O)N(c1c(Cl)c(OC)cc(OC)c1Cl)C2 (stereo not shown) [I-53] |  | < 100 nM |  | 
C=CC(=O)N[C@@H]1CCCC[C@@H]1Nc1ncc2c(n1)N(Cc1cscn1)C(=O)N(c1c(Cl)c(OC)cc(OC)c1Cl)C2 [I-119] |  |  |  | IC50 (FGFR4-WT): > 1000 nM
C=CC(=O)N[C@H]1CCCC[C@H]1Nc1ncc2c(n1)N(Cc1cnn(C)c1)C(=O)N(c1c(Cl)c(OC)cc(OC)c1Cl)C2 [I-148] |  | < 100 nM |  | 
C=CC(=O)Nc1cc(N2CCN(CC)CC2)ccc1Nc1ncc2c(n1)N(C)C(=O)N(c1cc(OC)cc(OC)c1)C2 [I-15] | < 100 nM |  |  | EC50 [1]: 101 to 500 nM
C=CC(=O)Nc1ccccc1Nc1ncc2c(n1)N(Cc1cccc(OC)c1)C(=O)N(c1c(Cl)c(OC)cc(OC)c1Cl)C2 [I-28] |  | < 100 nM |  | 
C=CC(=O)Nc1ccccc1Nc1ncc2c(n1)N(Cc1cn[nH]c1)C(=O)N(c1c(Cl)c(OC)cc(OC)c1Cl)C2 [I-124] | < 100 nM |  | 101 to 500 nM | 
C=CC(=O)NC1COCC1Nc1ncc2c(n1)N(Cc1cn[nH]c1)C(=O)N(c1c(Cl)c(OC)cc(OC)c1Cl)C2 (stereo not shown) [I-214] |  |  | 101 to 500 nM | IC50 (FGFR4-WT): < 100 nM
C=CC(=O)Nc1ccccc1Nc1ncc2c(n1)N(CCOC)C(=O)N(c1cc(OC)cc(OC)c1)C2 [I-59] | 501 to 999 nM |  | > 1000 nM | EC50 [1]: 101 to 500 nM
C=CC(=O)Nc1cc(N(C)CCOC)ccc1Nc1ncc2c(n1)N(C)C(=O)N(c1cc(OC)cc(OC)c1)C2 [I-21] | 101 to 500 nM |  | 501 to 999 nM | EC50 [1]: 101 to 500 nM
C=CC(=O)Nc1ccccc1Nc1ncc2c(n1)N(Cc1cccc(F)c1)C(=O)N(c1c(Cl)c(OC)cc(OC)c1Cl)C2 [I-12] | 101 to 500 nM |  |  | EC50 [1]: 101 to 500 nM
C=CC(=O)Nc1ccccc1Nc1ncc2c(n1)N(CC1CC1)C(=O)N(c1cc(OC)cc(OC)c1)C2 [I-98] | 101 to 500 nM |  | > 1000 nM | 
C=CC(=O)Nc1ccccc1Nc1ncc2c(n1)N(Cc1cccc(C(N)=O)c1)C(=O)N(c1cc(OC)cc(OC)c1)C2 [I-97] | 101 to 500 nM |  | > 1000 nM | 
C=CC(=O)Nc1ccccc1Nc1ncc2c(n1)N(C1CCNCC1)C(=O)N(c1c(Cl)c(OC)cc(OC)c1Cl)C2 [I-85] |  |  |  | GI50 (Huh7 cells; Huh-7, 120 h): 101 to 500 nM; GI50 (MDA-MB-453 cells; MDA-MB-453, 96 h): < 100 nM
C=CC(=O)N[C@H]1CCCC[C@H]1Nc1ncc2c(n1)N(C)C(=O)N(c1c(Cl)c(OC)cc(OC)c1Cl)C2 [I-95] | 101 to 500 nM |  | 501 to 999 nM | 
C=CC(=O)Nc1ccccc1Nc1ncc2c(n1)N(C)C(=O)N(c1c(Cl)cccc1Cl)C2 [I-83] | 501 to 999 nM |  | > 1000 nM | 
C=CC(=O)NC1CC=CCC1Nc1ncc2c(n1)N(C)C(=O)N(c1c(Cl)c(OC)cc(OC)c1Cl)C2 (racemic) [I-113] |  | < 100 nM | 501 to 999 nM | 
C=CC(=O)Nc1ccccc1Nc1ncc2c(n1)N(Cc1csc(C)n1)C(=O)N(c1c(Cl)c(OC)cc(OC)c1Cl)C2 [I-134] | < 100 nM |  |  | EC50 [1]: < 100 nM
C=CC(=O)N[C@H]1CCCC[C@H]1Nc1ncc2c(n1)N(C)C(=O)N(c1c(Cl)c(OC)c(OC)c(OC)c1Cl)C2 [I-221] |  | > 1000 nM |  | 

SMILES | GI50 (MDA-MB-453 cells; MDA-MB-453, 96 hr) | IC50 (FGFR4-WT; [2]) | GI50 (Huh7 cells; Huh-7, Huh7, 120 hr) | further results
C=CC(=O)Nc1ccccc1Nc1ncc2c(n1)N(C)C(=O)N(c1cc(OC)cc(OC)c1)C2 [I-5] | 501 to 999 nM |  | > 1000 nM | EC50 [1]: 101 to 500 nM
C=CC(=O)Nc1ccccc1Nc1ncc2c(n1)N(Cc1cnn(C)c1)C(=O)N(c1c(Cl)c(OC)cc(OC)c1Cl)C2 [I-149] |  | < 100 nM | < 100 nM | 
C=CC(=O)Nc1ccccc1Nc1ncc2c(n1)N(Cc1cccc(N)c1)C(=O)N(c1c(Cl)c(OC)cc(OC)c1Cl)C2 [I-26] | < 100 nM |  | < 100 nM | EC50 [1]: < 100 nM
C=CC(=O)Nc1ccccc1Nc1ncc2nc(-c3cc(OC)cc(OC)c3)c(=O)n(C)c2n1 [I-128] |  | 101 to 500 nM |  | 
C=CC(=O)N(C)C1CCCCC1Nc1ncc2c(n1)N(C)C(=O)N(c1cc(OC)cc(OC)c1)C2 (racemic) [I-39] |  | > 1000 nM |  | 
C=CC(=O)NC1CCCC1Nc1ncc2c(n1)N(C)C(=O)N(c1c(Cl)c(OC)cc(OC)c1Cl)C2 (racemic) [I-112] |  | < 100 nM |  | 
C=CC(=O)NC1CCCCC1Nc1ncc2c(n1)N(Cc1ccnc(N)c1)C(=O)N(c1c(Cl)c(OC)cc(OC)c1Cl)C2 (stereo not shown) [I-133] | < 100 nM |  | 101 to 500 nM | 
C=CC(=O)NC1CCCCC1Nc1ncc2c(n1)N(C1CCC1)C(=O)N(c1c(Cl)c(OC)cc(OC)c1Cl)C2 (racemic) [I-70] |  | < 100 nM |  | 
CCC(=O)Nc1ccccc1Nc1ncc2c(n1)N(Cc1ccccc1)C(=O)N(c1c(Cl)c(OC)cc(OC)c1Cl)C2 [I-236] |  |  |  | EC50 [1]: > 1000 nM
C=CC(=O)Nc1cc(N2CCN(CCOC)CC2)ccc1Nc1ncc2c(n1)N(C)C(=O)N(c1cc(OC)cc(OC)c1)C2 [I-20] | < 100 nM |  |  | EC50 [1]: 101 to 500 nM
C=CC(=O)Nc1ccccc1Nc1ncc2c(n1)N(CC(F)F)C(=O)N(c1c(Cl)c(OC)cc(OC)c1Cl)C2 [I-103] | < 100 nM |  | 101 to 500 nM | 
C=CC(=O)Nc1ccccc1Nc1ncc2cc(-c3cc(OC)cc(OC)c3)c(N)nc2n1 [I-155] |  | < 100 nM |  | 
C=CC(=O)Nc1ccccc1Nc1ncc2c(n1)N(CC(F)F)C(=O)N(c1cc(OC)cc(OC)c1)C2 [I-99] | 101 to 500 nM |  | > 1000 nM | 
C=CC(=O)Nc1ccccc1Nc1ncc2c(n1)N(C1COC1)C(=O)N(c1cc(OC)cc(OC)c1)C2 [I-88] | 501 to 999 nM |  | > 1000 nM | 
C=CC(=O)Nc1ccccc1Nc1ncc2c(n1)N(Cc1cscn1)C(=O)N(c1cc(OC)cc(OC)c1)C2 [I-64] | 101 to 500 nM |  | > 1000 nM | 
C=CC(=O)Nc1ccccc1Nc1ncc2c(n1)N(CCF)C(=O)N(c1cc(OC)cc(OC)c1Cl)C2 [I-110] | 101 to 500 nM |  | 501 to 999 nM | 
C=CC(=O)NC1CCCCC1Nc1ncc2c(n1)N(Cc1cccc(NC(=O)CC)c1)C(=O)N(c1c(Cl)c(OC)cc(OC)c1Cl)C2 (racemic) [I-8] | < 100 nM |  | 101 to 500 nM | 
C=CC(=O)Nc1cc(N2CCN(C(=O)OC(C)(C)C)CC2)ccc1Nc1ncc2c(n1)N(C)C(=O)N(c1c(Cl)c(OC)cc(OC)c1Cl)C2 [I-62] |  | < 100 nM |  | 
C=CC(=O)Nc1ccccc1Nc1ncc2c(n1)N(Cc1cn[nH]c1)C(=O)N(c1cc(OC)cc(OC)c1)C2 [I-121] | 101 to 500 nM |  | 501 to 999 nM | 
C=CC(=O)Nc1ccccc1Nc1ncc2c(n1)N(C)C(=O)N(c1c(F)c(OC)cc(OC)c1F)C2 [I-131] | < 100 nM |  | 101 to 500 nM | 
C=CC(=O)NC1CCCCC1Nc1ncc2c(n1)N(Cc1cccc(NS(C)(=O)=O)c1)C(=O)N(c1c(Cl)c(OC)cc(OC)c1Cl)C2 (racemic) [I-89] |  | < 100 nM |  | 
CCC(=O)N[C@H]1CCCC[C@H]1Nc1ncc2c(n1)N(Cc1cscn1)C(=O)N(c1c(Cl)c(OC)cc(OC)c1Cl)C2 [I-118] |  | > 1000 nM |  | 
